According to ChEMBL document CHEMBL3297683:
The source made the active and inactive calls. The calls are words filed in the database; no cut-off is given here.

What was measured:
[1] = target: Lactoylglutathione lyase (Homo sapiens) (UniProt Q04760); experiment: Inactivation of human GLO1 expressed in Escherichia coli JM103 at 4.7 to 80.6 uM after 5 to 180 secs
[2] = target: Lactoylglutathione lyase (Homo sapiens) (UniProt Q04760); experiment: Competitive inhibition of human GLO1 expressed in Escherichia coli JM103 at 0.1 to 0.7 mM by Dixon plot analysis

Sequence of Lactoylglutathione lyase (Homo sapiens) (Q04760 2-184 limits assumed): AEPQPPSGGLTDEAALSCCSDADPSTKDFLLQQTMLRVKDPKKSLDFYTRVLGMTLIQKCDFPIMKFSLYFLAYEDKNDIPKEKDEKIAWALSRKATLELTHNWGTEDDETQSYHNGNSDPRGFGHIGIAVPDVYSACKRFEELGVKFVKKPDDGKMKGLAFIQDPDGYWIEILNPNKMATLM

Activity [1]: Active
inhibition [2]: inactive
SMILES: N[C@@H](CCC(=O)N[C@@H](CSCC(=O)OCCCCOC(=O)CBr)C(=O)NCC(=O)O)C(=O)O
